Data taken from patent US10131652B2, “Pyrimidinyloxy benzene derivatives as herbicides” (E. I. DU PONT DE NEMOURS AND COMPANY, priority 2014, dated 2018).
Read-outs that look alike come from different tables or passages of the source.

Assays:
Assay in all cases: Test B pre-/postemergence plant response
Type in all cases: in vivo
[1] = tested on: barnyardgrass (Echinochloa crus-galli); details: Echinochloa crus-galli, 240 h, read-out: Plant response rating, Barnyardgrass; for pest or weed control at 125 g/ha: 125 g ai/ha; for pest or weed control at 500 g/ha: 500 g ai/ha; for pest or weed control at 1000 g/ha: 1000 g ai/ha
Procedure, shortened: (§1)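 Greenhouse pots, loam/sand soil; compound formulated with surfactant in non-phytotoxic solvent. Preemergence soil spray and postemergence spray at 1–2 leaf stage run simultaneously. Visual injury, 0–100, about 10 days post-treatment.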

corn (Zea mays) = details: Zea mays, 240 h; for Corn plant response rating (crop injury, 0 = no effect, 100 = complete kill) at 125 g/ha: 125 g ai/ha; for Corn plant response rating (crop injury, 0 = no effect, 100 = complete kill) at 500 g/ha: 500 g ai/ha; for Corn plant response rating (crop injury, 0 = no effect, 100 = complete kill) at 1000 g/ha: 1000 g ai/ha
Procedure, shortened: as §1

[2] = tested on: giant foxtail (Setaria faberii); details: Setaria faberi, 240 h, read-out: Plant response rating, Foxtail, Giant; for pest or weed control at 125 g/ha: 125 g ai/ha; for pest or weed control at 500 g/ha: 500 g ai/ha; for pest or weed control at 1000 g/ha: 1000 g ai/ha
Procedure, shortened: as §1

[3] = tested on: pigweed (Amaranthus retroflexus); details: Amaranthus retroflexus, 240 h, read-out: Plant response rating, Pigweed; for pest or weed control at 125 g/ha: 125 g ai/ha; for pest or weed control at 500 g/ha: 500 g ai/ha; for pest or weed control at 1000 g/ha: 1000 g ai/ha
Procedure, shortened: as §1

[4] = tested on: wheat (Triticum aestivum); details: Triticum aestivum, 240 h, read-out: Plant response rating, Wheat; for plant injury at 125 g/ha: 125 g ai/ha; for plant injury at 500 g/ha: 500 g ai/ha; for plant injury at 1000 g/ha: 1000 g ai/ha
Procedure, shortened: as §1

[5] = post-emergence, postemergence, 0 to 100 scale, 0 no effect, 100 complete control
[6] = post-emergence, Postemergence, 0 to 100 scale (0 no effect, 100 complete control)
[7] = pre-emergence, Preemergence, 0 to 100 scale where 0 is no effect and 100 is complete control
[8] = pre-emergence, Preemergence, 0 to 100 scale (0 no effect, 100 complete control)

| SMILES | pest or weed control at 125 g/ha [1, 5] [%] | pest or weed control at 500 g/ha [1, 6] [%] | pest or weed control at 125 g/ha [1, 7] [%] | pest or weed control at 500 g/ha [1, 8] [%] | Corn plant response rating (crop injury, 0 = no effect, 100 = complete kill) at 125 g/ha (corn (Zea mays); [5]) [%] | Corn plant response rating (crop injury, 0 = no effect, 100 = complete kill) at 500 g/ha (corn (Zea mays); [6]) [%] | Corn plant response rating (crop injury, 0 = no effect, 100 = complete kill) at 125 g/ha (corn (Zea mays); [7]) [%] | Corn plant response rating (crop injury, 0 = no effect, 100 = complete kill) at 500 g/ha (corn (Zea mays); [8]) [%] | pest or weed control at 125 g/ha [2, 5] [%] | pest or weed control at 500 g/ha [2, 6] [%] | pest or weed control at 125 g/ha [2, 7] [%] | pest or weed control at 500 g/ha [2, 8] [%] | pest or weed control at 125 g/ha [3, 5] [%] | pest or weed control at 500 g/ha [3, 6] [%] | pest or weed control at 125 g/ha [3, 7] [%] | pest or weed control at 500 g/ha [3, 8] [%] | plant injury at 125 g/ha [4, 5] [%] | plant injury at 500 g/ha [4, 6] [%] | plant injury at 125 g/ha [4, 7] [%] | plant injury at 500 g/ha [4, 8] [%] | further results |
| --- | --- | --- | --- | --- | --- | --- | --- | --- | --- | --- | --- | --- | --- | --- | --- | --- | --- | --- | --- | --- | --- |
| FC(F)(F)c1nccc(-c2ccccc2Oc2ncc(Br)cn2)n1 [Compound 21, 4-[2-[(5-bromo-2-pyrimidinyl)oxy]phenyl]-2-(trifluoromethyl)pyrimidine] | 0 | 60 | 0 | 50 | 0 | 40 | 0 | 0 | 0 | 60 | 70 | 100 | 80 | 100 | 30 | 90 | 0 | 0 | 0 | 0 | – |
| Cc1ccc(Oc2ncc(Cl)cn2)c(-c2ccc(C(F)(F)F)nc2)c1 [Compound 22, 5-chloro-2-[4-methyl-2-[6-(trifluoromethyl)-3-pyridinyl]phenoxy]pyrimidine] | 0 | 0 | 0 | 0 | 0 | 0 | 0 | 0 | 0 | 0 | 0 | 0 | 0 | 0 | 0 | 0 | 0 | 0 | 0 | 0 | – |
| Clc1ccc(-c2c(Cl)cccc2Oc2ncc(Cl)cn2)nc1 [Compound 23, 5-chloro-2-[3-chloro-2-(5-chloro-2-pyridinyl)phenoxy]pyrimidine] | 0 | 50 | 0 | 30 | 10 | 20 | 0 | 0 | 10 | 70 | 20 | 70 | 70 | 100 | 50 | 90 | 0 | 0 | 0 | 0 | pest or weed control at 1000 g/ha [1, 6]: 50%; pest or weed control at 1000 g/ha [1, 8]: 40%; Corn plant response rating (crop injury, 0 = no effect, 100 = complete kill) at 1000 g/ha (corn (Zea mays); [6]): 20%; Corn plant response rating (crop injury, 0 = no effect, 100 = complete kill) at 1000 g/ha (corn (Zea mays); [8]): 0%; pest or weed control at 1000 g/ha [2, 6]: 70%; pest or weed control at 1000 g/ha [2, 8]: 100%; pest or weed control at 1000 g/ha [3, 6]: 100%; pest or weed control at 1000 g/ha [3, 8]: 100%; plant injury at 1000 g/ha [4, 6]: 0%; plant injury at 1000 g/ha [4, 8]: 0% |
| Cc1ccc(Oc2ncc(Cl)cn2)c(-c2ccnc(C(F)(F)F)c2)c1 [Compound 24, 5-chloro-2-[4-methyl-2-[2-(trifluoromethyl)-4-pyridinyl]phenoxy]pyrimidine] | 0 | 60 | 10 | 80 | 0 | 40 | 0 | 40 | 30 | 90 | 20 | 90 | 20 | 40 | 0 | 40 | 0 | 0 | 0 | 0 | – |
| FC(F)(F)c1ccnc(-c2ccccc2Oc2ncc(Cl)cn2)c1 [Compound 25, 5-chloro-2-[2-[4-(trifluoromethyl)-2-pyridinyl]phenoxy]pyrimidine] | 0 | 30 | 10 | – | 10 | 30 | 0 | – | 0 | 60 | 40 | – | 30 | 90 | 60 | – | 0 | 10 | 0 | – | pest or weed control at 500 g/ha [1, 7]: 70%; Corn plant response rating (crop injury, 0 = no effect, 100 = complete kill) at 500 g/ha (corn (Zea mays); [7]): 0%; pest or weed control at 500 g/ha [2, 7]: 90%; pest or weed control at 500 g/ha [3, 7]: 100%; plant injury at 500 g/ha [4, 7]: 0% |
